From patent publication US9409952B2, “Peptide-compound cyclization method” (Chugai Seiyaku Kabushiki Kaisha, priority 2011, dated 2016)
Read-outs that look alike come from different tables or passages of the source. Starred links: 1 amine or outer side, 2 acyl side, 3 side chain; linkers in the order of their positions; H or OH if unused. Positions of bridges follow the written chain, without caps; N, C: chain ends. Non-standard residues stand in square brackets, D forms with d. Residues, ends and D or L forms follow the SMILES beside them. *: point of attachment. Phe(4-(CH2)5CO) = O=C([C@H](Cc1ccc(CCCCCC(=O)[*:3])cc1)N[*:1])[*:2]; Phe(4-CF3) = N[C@@H](Cc1ccc(C(F)(F)F)cc1)C(=O)O; NMePhe(3-Cl) = CN[C@@H](Cc1cccc(Cl)c1)C(=O)O; NMeF = CN[C@@H](Cc1ccccc1)C(=O)O; NMeI = CC[C@H](C)[C@H](NC)C(=O)O; NMeβAla = CN(CCC(=O)[*:2])[*:1]; NMeL = CN[C@@H](CC(C)C)C(=O)O; NMeV = CN[C@H](C(=O)O)C(C)C; NMeA = CN[C@@H](C)C(=O)O; Piperidide = C1CCN(*)CC1; β3hA = C[C@H](N)CC(=O)O; Aib = CC(C)(N)C(=O)O; Sar = CNCC(=O)O; tBu = CC(C)(C)*

How the values were obtained:
[1] = PAMPA (parallel artificial membrane permeability assay); assay type: in vitro ADME; details: PAMPA
Outline: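 Artificial membrane was 10% (w/v) egg lecithin plus 0.5% (w/v) cholesterol in dodecane on a PVDF filter. A 10 mM DMSO stock was added at 0.5% (v/v) to donor buffer (50 mM MOPSO, pH 6.5, 5.0% glycocholic acid). After 18 h at 37 °C, LC/MS or LC/UV gave donor and acceptor levels for Pe.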

[2] = Metabolic stability in human hepatic microsome; assay type: in vitro ADME; details: microsomes
[3] = membrane permeation rate (Pe), 50 mM MOPSO buffer pH 6.5 with 5.0% glycocholic acid, 37° C., 18 hours, read-out: iPAMPA Pe
[4] = pH 7.4, human hepatic microsome, NADPH(+), read-out: CL NADPH(+)

| SMILES | Papp at 18 hours, 50 µM ([1]; pH 6.5) | microsomal CLint at 1 uM ([2]; human, pH 7.4, CL NADPH(+)) | Papp at 18 hours, 50 µM [1, 3] | microsomal CLint at 1 uM [2, 4] |
| --- | --- | --- | --- | --- |
| CC[C@H](C)[C@H]1C(=O)N(C)[C@@H](CC(C)C)C(=O)N[C@@H]([C@@H](C)O)C(=O)N2CCC[C@H]2C(=O)N[C@@H](Cc2ccccc2)C(=O)N[C@H](C(=O)N2CCCCC2)CC(=O)N(C)CC(=O)N(C)[C@@H](CC(C)C)C(=O)N[C@@H](Cc2ccccc2)C(=O)N[C@@H](CC(C)C)C(=O)NCC(=O)N1C [DP-106] ([Sar][NMeL]FLG[NMeI][NMeL]TPFD-Piperidide; lactam N-11) | 34 ×10⁻⁶ cm/s | 155 µL/min/mg |  |  |
| CC(C)C[C@@H]1NC(=O)CCCCCc2ccc(cc2)C[C@@H](C(=O)N2CCCCC2)NC(=O)[C@H](Cc2ccccc2)N(C)C(=O)[C@H](CC(C)C)N(C)C(=O)CN(C)C(=O)[C@H]([C@@H](C)O)NC(=O)[C@H](C)N(C)C(=O)[C@H](C(C)C)N(C)C(=O)[C@H](C)NC(=O)[C@H](CC(C)C)N(C)C(=O)[C@H](Cc2ccccc2)N(C)C1=O [DP-881] (L[NMeF][NMeL]A[NMeV][NMeA]T[Sar][NMeL][NMeF][Phe(4-(CH2)5CO)]-Piperidide; lactam N-11) |  |  | 6.8 ×10⁻⁶ cm/s | 83 µL/min/mg |
| CC[C@H](C)[C@H]1C(=O)N[C@H](C(=O)N2CCCCC2)CC(=O)N(C)CCC(=O)N[C@@H](Cc2ccccc2)C(=O)N(C)[C@@H](CC(C)C)C(=O)N[C@@H](COC(C)(C)C)C(=O)NCC(=O)N2CCC[C@H]2C(=O)N[C@@H]([C@@H](C)O)C(=O)N[C@@H](CC(C)C)C(=O)N(C)[C@@H](C)C(=O)N[C@@H](Cc2ccccc2)C(=O)N1C [DP-222] ([NMeβAla]F[NMeL]S(tBu)GPTL[NMeA]F[NMeI]D-Piperidide; lactam N-12) |  |  | 16 ×10⁻⁶ cm/s | 30 µL/min/mg |
| CC(C)C[C@@H]1NC(=O)[C@H](C)NC(=O)C[C@H](C)NC(=O)[C@H](Cc2ccccc2)N(C)C(=O)[C@H](CC(C)C)N(C)C(=O)[C@H](C)NC(=O)[C@H](Cc2ccccc2)N(C)C(=O)[C@H](CC(C)C)N(C)C1=O [DP-798] (cyclo(AL[NMeL][NMeF]A[NMeL][NMeF][β3hA])) |  |  | 69 ×10⁻⁶ cm/s | 1540 µL/min/mg |
| CC(C)C[C@@H]1NC(=O)[C@H]([C@@H](C)O)NC(=O)[C@H](CC(C)C)NC(=O)[C@H](CC(C)C)N(C)C(=O)[C@H](Cc2ccccc2)NC(=O)[C@H](Cc2ccccc2)NC(=O)[C@H](C)N(C)C(=O)C[C@@H](C(=O)N2CCCCC2)NC(=O)[C@H](Cc2ccccc2)N(C)C(=O)CNC1=O [DP-116] ([NMeA]FF[NMeL]LTLG[NMeF]D-Piperidide; lactam N-10) |  |  | 23 ×10⁻⁶ cm/s | 333 µL/min/mg |
| CC[C@H](C)[C@H]1C(=O)NCC(=O)N(C)[C@@H](C)C(=O)N[C@@H](CC(C)C)C(=O)N[C@@H](C)CC(=O)N(C)[C@@H](C)C(=O)N[C@@H](CC(C)C)C(=O)N(C)[C@@H](C)C(=O)N[C@@H]([C@@H](C)O)C(=O)N2CCC[C@H]2C(=O)N(C)[C@@H](Cc2cccc(Cl)c2)C(=O)N[C@@H](Cc2ccc(C(F)(F)F)cc2)C(=O)N1C [DP-810] (cyclo(G[NMeA]L[β3hA][NMeA]L[NMeA]TP[NMePhe(3-Cl)][Phe(4-CF3)][NMeI])) | 14 ×10⁻⁶ cm/s | 46 µL/min/mg |  |  |
| CC[C@H](C)[C@H]1C(=O)NCC(=O)N(C)[C@@H](CC(C)C)C(=O)N[C@@H]([C@@H](C)O)C(=O)N2CCC[C@H]2C(=O)NC(C)(C)C(=O)N[C@H](C(=O)N2CCCCC2)CC(=O)N(C)[C@@H](C)C(=O)N[C@@H](Cc2ccccc2)C(=O)N(C)[C@@H](CC(C)C)C(=O)N[C@@H](CC(C)C)C(=O)N1C [DP-564] ([NMeA]F[NMeL]L[NMeI]G[NMeL]TP[Aib]D-Piperidide; lactam N-11) |  |  | 27 ×10⁻⁶ cm/s | 80 µL/min/mg |
| CC[C@H](C)[C@@H]1NC(=O)[C@H](C)N(C)C(=O)[C@H](CC(C)C)N(C)C(=O)[C@@H](C(C)C)NC(=O)C[C@@H](C(=O)N(C)[C@@H](Cc2ccccc2)C(=O)N[C@@H](C)C(=O)N2CCCCC2)NC(=O)[C@H]([C@@H](C)O)NC(=O)[C@H](CC(C)C)N(C)C(=O)[C@H](Cc2ccccc2)N(C)C(=O)[C@H](CC(C)C)N(C)C(=O)[C@H](Cc2ccccc2)N(C)C1=O [DP-190] ([dV][NMeL][NMeA]I[NMeF][NMeL][NMeF][NMeL]TD[NMeF]A-Piperidide; lactam N-10) |  |  | 0.6 ×10⁻⁶ cm/s | 3 µL/min/mg |
| CC(C)C[C@@H]1NC(=O)[C@H](CCC(=O)O)NC(=O)[C@@H]2CCCN2C(=O)[C@H](CC(C)C)NC(=O)[C@H](CC(C)C)N(C)C(=O)[C@H](Cc2ccccc2)NC(=O)[C@H](C)N(C)C(=O)[C@H](CC(C)C)N(C)C(=O)[C@H](Cc2ccccc2)NC(=O)CN(C)C(=O)C[C@@H](C(=O)N(C)[C@@H](Cc2ccccc2)C(=O)N[C@@H](C)C(=O)N2CCCCC2)NC1=O [DP-595] ([Sar]F[NMeL][NMeA]F[NMeL]LPELD[NMeF]A-Piperidide; lactam N-11) | 4.9 ×10⁻⁶ cm/s | 9 µL/min/mg |  |  |
